Structures can show the parent of a compound that is named as a salt.
Columns and labels:
[1] = tested on: interferon (α); test: Cytokine Induction in Human Cells: interferon (α) by ELISA; assay type: cell-based; conditions: PBMC; human PBMCs, incubated 18 to 24 hours, lowest concentration found to induce interferon
Outline: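 Healthy-donor human PBMCs (1.5–2×10^6 cells/mL final, RPMI with 10% FBS) exposed to serially diluted compound (≤1% DMSO) for 18–24 h at 37 °C, 5% CO2. Supernatant IFN-α measured by ELISA; value reported is lowest concentration inducing interferon.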

[2] = tested on: tumor necrosis factor (α); test: Cytokine Induction in Human Cells: tumor necrosis factor (α) by ELISA; assay type: cell-based; conditions: PBMC; human PBMCs, incubated 18 to 24 hours, lowest concentration found to induce tumor necrosis factor
Outline: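 Healthy-donor PBMCs (1.5–2×10^6 cells/mL final, RPMI with 10% FBS) incubated 18–24 h at 37 °C with compound in three- or ten-fold serial dilutions, DMSO ≤1% final. Supernatant TNF measured by ELISA; value is lowest concentration inducing TNF.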

Structure (SMILES)	melting point	minimal effective concentration [1]	minimal effective concentration [2]
Nc1nc2ccccc2c2c1ncn2CCCCNC(=O)Oc1ccc2ccccc2c1	154 to 155 °C		
CCCCCc1nc2c(N)nc3c(c2n1CCCCNC(=O)N1CCOCC1)CCCC3 (as salt: hydrochloride) [Example 172, N-[4-(4-amino-2-pentyl-6,7,8,9-tetrahydro-1H-imidazo[4,5-c]quinolin-1-yl)butyl]morpholine-4-carboxamide hydrochloride]	126.8 to 127.5 °C		
CC(C)(C)OC(=O)NCCn1cnc2c(N)nc3ccccc3c21 [Example 1, Tert-Butyl N-[2-(4-Amino-1H-imidazo[4,5-c]quinolin-1-yl)ethyl]carbamate]	215 °C	3.33 µM	30 µM
CC(C)(C)OC(=O)NCCCCn1cnc2c(N)nc3ccccc3c21 [Example 2]	171 to 173 °C	0.37 µM	3.33 µM
Nc1nc2ccccc2c2c1ncn2CCCCNC(=O)N1CCOCC1 [Example 5, N^4-[4-(4-Amino-1H-imidazo[4,5-c]quinolin-1-yl)butyl]-4-morpholinecarboxamide]	177 to 179.5 °C	3.33 µM	> 30 µM
COCCc1nc2c(N)nc3ccccc3c2n1CCCNC(=O)OC(C)(C)C [Example 148, tert-butyl 3-[4-amino-2-(2-methoxyethyl)-1H-imidazo[4,5-c]quinolin-1-yl]propylcarbamate]	174.2 to 175.8 °C	0.04 µM	0.04 µM
CCCCNC(=O)NCCCn1c(CCCC)nc2c(N)nc3ccccc3c21 [Example 150, N-[3-(4-amino-2-butyl-1H-imidazo[4,5-c]quinolin-1-yl)propyl]-N′-butylurea]	185.5 to 186.4 °C	0.04 µM	0.37 µM
CCCCc1nc2c(N)nc3ccccc3c2n1CCCNC(=O)N1CCOCC1 [Example 151, N-[3-(4-amino-2-butyl-1H-imidazo[4,5-c]quinolin-1-yl)propyl]morpholine-4-carboxamide]	193.4 to 194.6 °C	0.01 µM	0.01 µM
CCCCc1nc2c(N)nc3ccccc3c2n1CCCNC(=S)NCCC [Example 152, N-[3-(4-amino-2-butyl-1H-imidazo[4,5-c]quinolin-1-yl)propyl]-N′-propylthiourea]	144.5 to 145.5 °C	0.04 µM	0.04 µM
CCCCc1nc2c(N)nc3ccccc3c2n1CCCNC(=O)NC1CCCCC1 [Example 153, N-[3-(4-amino-2-butyl-1H-imidazo[4,5-c]quinolin-1-yl)propyl]-N′-cyclohexylurea]	200 to 201 °C	0.01 µM	0.12 µM
CCCNC(=S)NCCCn1c(CCOC)nc2c(N)nc3ccccc3c21 [Example 156, N-{3-[4-amino-2-(2-methoxyethyl)-1H-imidazo[4,5-c]quinolin-1-yl]propyl}-N′-propylthiourea]	172 to 173 °C	0.01 µM	1.11 µM
Cc1nc2c(N)nc3ccccc3c2n1CCCNC(=O)N1CCOCC1 [Example 167, N-[3-(4-amino-2-methyl-1H-imidazo[4,5-c]quinolin-1-yl)propyl]morpholine-4-carboxamide]	226 to 228 °C		
COCCc1nc2c(N)nc3c(c2n1CCCNC(=O)N1CCOCC1)CCCC3 [Example 168, N-{3-[4-amino-2-(2-methoxyethyl)-6,7,8,9-tetrahydro-1H-imidazo[4,5-c]quinolin-1-yl]propyl}morpholine-4-carboxamide]	171.8 to 173.2 °C		

Continued, in another order:

melting point	Structure (SMILES)	minimal effective concentration [1]	minimal effective concentration [2]
89 to 92 °C	Nc1nc2ccccc2c2c1ncn2CCCCNC(=O)Oc1cccc2ccccc12		
87 to 88 °C	CN(C(=O)NCCCCn1cnc2c(N)nc3ccccc3c21)c1ccccc1 [Example 6, N^1-[4-(4-Amino-1H-imidazo[4,5-c]quinolin-1-yl)butyl]-N-methyl-N-phenylurea]	0.37 µM	> 30 µM
196 °C (dec.)	COc1ccc(Cc2nc3c(N)nc4ccccc4c3n2CCCCNC(N)=O)cc1 [Example 10, N-{4-[4-Amino-2-(4-methoxybenzyl)-1H-imidazo[4,5-c]quinolin-1-yl]butyl}urea]		
182 to 183 °C	CC(C)(C)OC(=O)NCCCCn1c(-c2ccccc2)nc2c(N)nc3ccccc3c21 [Example 12, tert-Butyl N-[4-(4-Amino-2-phenyl-1H-imidazo[4,5-c]quinolin-1-1)butyl]carbamate]		
113 to 116 °C	CCCNC(=S)NCCCCn1c(-c2ccccc2)nc2c(N)nc3ccccc3c21 [Example 13, N-[4-(4-Amino-2-phenyl-1H-imidazo[4,5-c]quinolin-1-yl)butyl]-N′-propylthiourea]		
118 to 120 °C	Nc1nc2ccccc2c2c1nc(-c1ccccc1)n2CCCCNC(=S)Nc1cccnc1 [Example 14, N-[4-(4-Amino-2-phenyl-1H-imidazo[4,5-c]quinolin-1-yl)butyl]-N′-(3-pyridyl)thiourea]		
145 to 150 °C	Nc1nc2ccccc2c2c1nc(-c1ccccc1)n2CCCCNC(=O)Nc1ccc(F)cc1 [Example 15, N-[4-(4-amino-2-phenyl-1H-imidazo[4,5-c]quinolin-1-yl)butyl]-N′-(4-fluorophenyl)urea]		
179.7 to 181.4 °C	CCc1nc2c(N)nc3ccccc3c2n1CCCCNC(=O)Nc1ccccc1 [Example 143, N-[4-(4-amino-2-ethyl-1H-imidazo[4,5-c]quinolin-1-yl)butyl]-N′-phenylurea]	0.01 µM	0.37 µM
171.5 to 172.5 °C	Cc1nc2c(N)nc3ccccc3c2n1CCCCNC(=O)Nc1ccccc1 [Example 144, N-[4-(4-amino-2-methyl-1H-imidazo[4,5-c]quinolin-1-yl)butyl]-N′-phenylurea]	0.04 µM	0.37 µM
142.8 to 144 °C	CCCCc1nc2c(N)nc3ccccc3c2n1CCCNC(=S)Nc1ccccc1 [Example 149, N-[3-(4-amino-2-butyl-1H-imidazo[4,5-c]quinolin-1-yl)propyl]-N′-phenylthiourea]	0.04 µM	0.37 µM
153 to 155 °C	CCCCc1nc2c(N)nc3ccccc3c2n1CCCCCCCCNC(=O)Nc1ccccc1 [Example 154, N-[8-(4-amino-2-butyl-1H-imidazo[4,5-c]quinolin-1-yl)octyl]-N′-phenylurea]	0.37 µM	1.11 µM
170.4 to 171.6 °C	CCCCCCc1nc2c(N)nc3ccccc3c2n1CCCCNC(=O)Nc1ccccc1 [Example 155, N-[4-(4-amino-2-hexyl-1H-imidazo[4,5-c]quinolin-1-yl)butyl]-N′-phenylurea]	3.33 µM	10 µM
198.8 to 199.9 °C	Nc1nc2ccccc2c2c1nc(CCCOc1ccccc1)n2CCCNC(=O)N1CCOCC1 [Example 166, N-{3-[4-amino-2-(3-phenoxypropyl)-1H-imidazo[4,5-c]quinolin-1-yl]propyl}morpholine-4-carboxamide]		

— US7157453B2, “Urea substituted imidazoquinolines” (3M Innovation Properties Company, priority 1999, dated 2007)
